Results taken from patent US20260285853A1, “COMPOUNDS AND METHODS FOR MODULATING SPLICING” (REMIX THERAPEUTICS INC., priority 2023, published 2026).

Tests used:
Format in all cases: cell-based
HTT mRNA [1] = experiment: Splicing RT-qPCR assay (THP), Table 2A; conditions: Table 2A (THP); for AC50: AJ mRNA increase, read-out: HTT AJ (increase in alternative junction mRNA, AC50); for IC50: CJ mRNA decrease, read-out: HTT CJ (decrease in canonical junction mRNA, IC50)
MYB mRNA [2] = experiment: Splicing RT-qPCR assay (THP), Table 2A; conditions: Table 2A (THP); for AC50: AJ mRNA increase, read-out: MYB AJ (increase in alternative junction mRNA, AC50); for IC50: CJ mRNA decrease, read-out: MYB CJ (decrease in canonical junction mRNA, IC50)
HTT mRNA [3] = experiment: Gene panel canonical junction qPCR assay, decrease in CJ mRNA, Table 3; conditions: decrease in canonical junction (CJ) mRNA, gene panel qPCR, Table 3
Summary of the method: (§1)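 A673 (DMEM, 10% FBS, 15,000 cells/well) or K562 (IMDM, 10% FBS) cells treated 24 h at 37 °C with 11-point 3-fold dilutions, top 10 uM, DMSO ≤0.25%. Canonical exon-exon junction mRNA measured by RT-qPCR, normalized to GAPDH, GUSB or PPIA and DMSO (ΔΔCt); IC50 from 4-parameter logistic fit.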

MYB mRNA [4] = experiment: as above; conditions: decrease in canonical junction (CJ) mRNA, gene panel qPCR, Table 3
Summary of the method: as §1

[5] = tested on: SH-SY5Y (human neuroblastoma) cells; experiment: Cell viability, Cell Titer Glo 2.0 assay; conditions: read-out: Viability SHSY5Y.3 GI50
Summary of the method: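 Toxicity screen in SH-SY5Y cells. Compounds were serially diluted in DMSO and then in medium, giving 0.1% DMSO final. Viability was read with CellTiter-Glo 2.0 after 72 h at 37 °C, 5% CO2, against medium-only blank wells.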

Compound | AC50 (HTT mRNA [1]) | IC50 (HTT mRNA [1]) | AC50 (MYB mRNA [2]) | IC50 (MYB mRNA [2]) | IC50 (HTT mRNA [3]) | IC50 (MYB mRNA [4]) | GI50 [5]
COc1nc2nn(C)cc2cc1NC(=O)c1ccc(N2CCC(NC3CC3)CC2)c2cn(C)nc12 [Compound 460, 4-[4-(cyclopropylamino)-1-piperidyl]-N-(6-methoxy-2-methyl-pyrazolo[3,4-b]-pyridin-5-yl)-2-methyl-indazole-7-carboxamide] | 1 to 10 µM | 1 to 10 µM | 0.1 to 1 µM | 0.1 to 1 µM | 1 to 10 µM | 0.1 to 1 µM | 1 to 10 µM
COc1c(NC(=O)c2ccc(N3CCC(NC4CC4)CC3)c3cn(C)nc23)cc2cn(C)nc2c1Cl [Compound 461, N-(7-chloro-6-methoxy-2-methyl-indazol-5-yl)-4-[4-(cyclopropylamino)-1-piperidyl]-2-methyl-indazole-7-carboxamide] | 0.1 to 1 µM | 0.1 to 1 µM | 0.1 to 1 µM | 0.1 to 1 µM | 0.1 to 1 µM | 0.1 to 1 µM | 0.1 to 1 µM
Cc1cn2cc(NC(=O)c3ccc(N4CCC(NC5CC5)CC4)c4cn(C)nc34)nc2c(-c2cnoc2)n1 [Compound 462, 4-[4-(cyclopropylamino)-1-piperidyl]-N-(8-isoxazol-4-yl-6-methyl-imidazo[1,2-a]-pyrazin-2-yl)-2-methyl-indazole-7-carboxamide] | > 10 µM | > 10 µM | > 10 µM | > 10 µM | > 10 µM | > 10 µM | 1 to 10 µM
COc1cc2nn(C)cc2cc1NC(=O)c1c(O)cc(N2CCC(NC3CC3)CC2)c2cn(C)nc12 [Compound 463, 4-[4-(cyclopropylamino)-1-piperidyl]-6-hydroxy-N-(6-methoxy-2-methyl-indazol-5-yl)-2-methyl-indazole-7-carboxamide] | 1 to 10 µM | 1 to 10 µM | < 0.1 µM | < 0.1 µM | 1 to 10 µM | < 0.1 µM | 0.1 to 1 µM
CCNCC1CCN(c2cc(F)c(C(=O)Nc3cc4cn(C)nc4cc3OC)c3nn(C)cc23)C1 (stereo not shown) [Compound 464, 4-(3-[(ethylamino)methyl]pyrrolidin-1-yl)-6-fluoro-N-(6-methoxy-2-methylindazol-5-yl)-2-methylindazole-7-carboxamide] | 0.1 to 1 µM | 0.1 to 1 µM | 0.1 to 1 µM | 0.1 to 1 µM | 0.1 to 1 µM | 0.1 to 1 µM | 0.1 to 1 µM
Cc1cn2cc(NC(=O)c3c(F)cc(NCC4CCNCC4)c4cn(C)nc34)nc2c(C)n1 [Compound 465, N-(6,8-dimethylimidazo[1,2-a]pyrazin-2-yl)-6-fluoro-2-methyl-4-(4-piperidylmethylamino)indazole-7-carboxamide] | > 10 µM | > 10 µM | > 10 µM | > 10 µM | > 10 µM | > 10 µM | 0.1 to 1 µM
COc1cc2nn(C)cc2cc1NC(=O)c1c(C2CC2)cc(N2CCC(NC3CC3)CC2)c2cn(C)nc12 [Compound 466, 6-cyclopropyl-4-[4-(cyclopropylamino)-1-piperidyl]-N-(6-methoxy-2-methyl-indazol-5-yl)-2-methyl-indazole-7-carboxamide] | > 10 µM | > 10 µM | > 10 µM | > 10 µM | > 10 µM | > 10 µM | 1 to 10 µM
Cn1cc2cc(NC(=O)c3c(F)cc(N4CCC(NC5CC5)CC4)c4cn(C)nc34)c(OC3CCOC3)cc2n1 (stereo not shown) [Compound 467, 4-[4-(cyclopropyl-amino)-1-piperidyl]-6-fluoro-2-methyl-N-(2-methyl-6-tetrahydrofuran-3-yloxy-indazol-5-yl)indazole-7-carboxamide] | 0.1 to 1 µM | 0.1 to 1 µM | < 0.1 µM | < 0.1 µM | 0.1 to 1 µM | < 0.1 µM | 0.1 to 1 µM
CCNC1CCN(c2cc(F)c(C(=O)Nc3cn4cc(C)nc(C)c4c3F)c3nn(C)cc23)CC1 [Compound 468, 4-[4-(ethylamino)-1-piperidyl]-6-fluoro-N-(8-fluoro-1,3-dimethyl-pyrrolo[1,2-a]pyrazin-7-yl)-2-methyl-indazole-7-carboxamide] | > 10 µM | > 10 µM | < 0.1 µM | < 0.1 µM | > 10 µM | < 0.1 µM | 1 to 10 µM
Cc1cc2cc(NC(=O)c3ccc(N4CCC(NC5CC5)CC4)c4cn(C)nc34)n(C)c2c(C)n1 [Compound 469, 4-[4-(cyclopropyl-amino)-1-piperidyl]-2-methyl-N-(1,5,7-trimethyl-pyrrolo[2,3-c]-pyridin-2-yl)indazole-7-carboxamide] | 1 to 10 µM | 1 to 10 µM | 1 to 10 µM | 1 to 10 µM | 1 to 10 µM | 1 to 10 µM | 0.1 to 1 µM
